Data reported in patent US20060025483A1, “(-)-Hydroxycitric acid for protection against soft tissue and arterial calcification” (priority 2004, published 2006).

How the values were obtained:
systolic blood pressure [1] = experiment: systolic blood pressure (SBP) by tail plethysmography, rats on 30% fat / sucrose diet; type: in vivo, Sprague-Dawley Rats; settings: for lowering of SBP: end of 8 weeks
From the text: (§1) A known effect of ACE inhibitors is a reduction in elevated systolic blood pressure. To test this, the following protocol was employed: Sprague-Dawley Rats (SD), approximately 8 weeks of age were obtained. Six groups of eight male SD received the same standard rat chow manufactured to specifications. The special diets derived 30% of calories from fats (one half from lard and one half from corn oil), 50% from carbohydrates, and 20% from proteins. Twenty percent of dietary calories was derived from sucrose and the preponderance of the remaining carbohydrate calories was derived from dextrin. During weekdays (M-F), each group was gavaged twice daily with a solution containing a commercial source of potassium hydroxycitrate (KHCA), a commercial source of potassium-calcium hydroxycitrate (KCaHCA), or a pre-commercial non-salt source of potassium-magnesium hydroxycitrate (KMgHCA, listed as KMgHCA L-Low, M-Intermediate or H-High depending upon the dose). Over the weekends (S-S), a similar quantity of the weekday daily dose was added to twenty grams of food, that is, an amount of food estimated to be close to the daily intake of the animals. At initiation of study and four weeks, and eight weeks later, bloods were drawn from all SD for routine blood chemistries. Body weight (BW) was measured weekly and systolic blood pressure (SBP) was measured every two weeks.
The HCA dosages in the arms varied. The dosage used in the KHCA arm was extrapolated from the recommended 1,500 mg HCA per day for humans consuming a normal diet (i.e., ≧30% calories derived from fats) advocated by a commercial seller of KHCA and claimed to have produced acceptable clinical results. The approximate equivalent for the rat model is 35.4 mg HCA per day, which we increased to 38.4 mg HCA per day for convenience in employing a 48% HCA potassium salt and to remain safely on the high side in practice. For the sake of comparison, a commercial KCaHCA salt (60% HCA) was chosen and delivered at an HCA dosage level of 48 mg per day, which slightly exceeded the lowest dosage of HCA found to be efficacious for inhibition of weight gain in rats in the early pharmaceutical trials (45.4 mg/day) using pure trisodium hydroxycitrate and a very low fat diet. The design thus utilized a realistic diet with rough equivalents of the HCA dosages claimed to be effective in both the human and rat models.
The experimental KMgHCA dosings varied considerably from that of the other two salts. […] As a result, the recalculated HCA doses for the experimental compound were a low dose (KMgHCA L) of 14 mg, an intermediate dose (KMgHCA M) of 28 mg and a high dose (KMgHCA H) of 84 mg per day. The difficulty in calculating the HCA content in this case is not unique inasmuch as there is as of yet no universally accepted method for calculating the HCA content of the various salts. Again, preparations yielded the equivalent of 48 mg HCA per day from KCaHCA and 38.4 mg HCA per day from KHCA.
(§2) Systolic Blood Pressure (SBP): SBP was estimated by tail plethysmography in unanesthetized rats after a brief warming period. Readings were taken approximately one minute apart. To be accepted, SBP measurements had to be virtually stable for a minimum of three consecutive readings.
(§3) Statistical Analyses: Results are presented as mean±SEM. Many statistics were performed by one-way analysis of variance (ANOVA). SBP and BW were examined by two-way analyses of variance (one factor being dietary group and the second factor being time of examination). Where a significant effect of diet was detected by ANOVA (p<0.05), the Dunnett t test was used to establish which differences between means reached statistical significance (p<0.05). If a Student's t test was employed, this is noted.

insulin = experiment: circulating insulin concentrations; type: in vivo, Sprague-Dawley Rats
From the text: as §1, §3

systolic blood pressure [2] = experiment: SBP in SHR on rat chow / table sugar diet; type: in vivo, Spontaneously hypertensive rats (SHR); settings: 100 mg HCA per day in food; over three weeks
Procedure: as §2
(§4) Spontaneously hypertensive rats (SHR) were placed on a diet composed of regular rat chow (60% w/w) and table sugar (40% w/w). This diet reliably elevates blood pressure in this animal model. One group received 100 mg HCA per day in the form of a new potassium-magnesium hydroxycitrate (different from that used in Example 1) via an added 5 g HCA per kg of food mix. Systolic blood pressure and body weight were tested as in Example 1 on a weekly basis.

[3] = body weight in SHR on rat chow / table sugar diet; type: in vivo, Spontaneously hypertensive rats (SHR); settings: 100 mg HCA per day in food; over three weeks
Procedure: as §4

[4] = glucose tolerance test with 0.1 unit regular insulin injected along with glucose; type: in vivo, Spontaneously hypertensive rats (SHR); settings: at 7.5 minutes; 100 mg HCA per day in food
Procedure: This was viewed as likely positive in that rats gain weight steadily as long as they remain in good health and the SHR at middle age, as used here, lives a relatively short life and its health deteriorates as its blood pressure rises. […] A glucose tolerance test was administered in which 0.1 unit of regular insulin was injected along with glucose. […] This finding indicates increased insulin sensitivity. (FIG. 6)

C-reactive protein = experiment: serum C-reactive protein, rats on 30% fat / simple sugar diet; type: in vivo; design: key to CRP Modulation: ** = significant; settings: for CRP Modulation: 4 wks; for Δ OD units after 4 wks: serum CRP, 1 unit equals 50 picograms/mL
From the text: (§5) To test the properties of HCA in various forms under conditions similar to those found in human clinical trials, the inventor arranged for rats to be fed a diet in which 30% of the calories were obtained from fat under standard conditions, with a further approximately 20% of the calories being supplied as simple sugars. Such a dietary combination of fat and simple sugars is noted as promoting a variety of metabolic imbalances and dysfunctions. The rats were intubated twice daily with one of five HCA salts or placebo. On weekends, the HCA was added to the food at an approprate dosage. The amount of HCA in each arm of 8 animals was based on the minimum dosage which had been found effective in the form of the pure trisodium salt of HCA in tests by Hoffmann-La Roche in animals ingesting a 70% glucose diet, i.e., 0.33 mmoles/kg body weight HCA given twice per day. The HCA salts used were these: KCaHCA=a mixed potassium and calcium or double metal HCA salt commercially marketed as being entirely water soluble and of relatively high purity; KHCA=a relatively clean commercial potassium salt of HCA with a good mineral ligand attachment supplying 4467 mg potassium/100 grams of material; KMgHCA=three different dosage levels of an experimental potassium and magnesium salt with special characteristics, but suspected of being relatively unstable when exposed to stomach acid. The KCaHCA and KHCA salts were 60% HCA delivered at the rate of approximately 76 mg/day. The KMgHCA salts were delivered at the rate of 76 mg/day (r), 38 mg/day (l) and 228 mg/day (h), but due to initial miscalculations of the water of crystallization, this salt was only 45% HCA rather than 60%. The proper dosage for the KMgHCA(r) should have been 100 mg/day; the half dose (I) should have been 50 mg/day, and the triple dose (h) should have been 300 mg/day to match the commercial salts.
Tests were performed for C-reactive protein. Data was obtained for the animals at start and then at week 4 based on serum. Optical Density (OD) readings in the test kit used were 1 unit equals 50 picograms/mL. The delta changes over the 4 weeks for each arm vs control are shown.

TNF-α = experiment: TNF-α, rats on 30% fat / simple sugar diet; type: in vivo; settings: eight weeks
From the text: as §5, with “The KCaHCA and KHCA salts were 60% HCA delivered at the rate of approximately 76 mg/day. The KMgHCA salts were delivered at the rate of 76 mg/day (r), 38 mg/day (l) and 228 mg/day (h), but due to initial miscalculations of the water of crystallization, this salt was only 45% HCA rather than 60%. The proper dosage for the KMgHCA(r) should have been 100 mg/day; the half dose (I) should have been 50 mg/day, and the triple dose (h) should have been 300 mg/day to match the commercial salts.” left out

ACE system = experiment: response of SBP to losartan challenge; type: in vivo, Spontaneously hypertensive rats (SHR); settings: at 6 hours; SHR fed 100 mg HCA per day as new KMgHCA
From the text: Many factors can positively influence blood pressure, e.g., diuretics, antioxidants, regulators of sympathetic/parasympathetic tone, compounds that improve insulin sensitivity and so forth. Therefore, losartan, an angiotensin-2 receptor blocker, was utilized to discover whether the ACE system was involved in the results discussed in Example 1.
as §4
When losartan was injected, the SBP of both groups decreased. At 6 hours, the SBP were essentially the same. […] Thus, HCA appears to decrease angiotensin-2 in rats and to lower elevated SBP. Although insulin regulation likely is a factor in the blood pressure modulating effect of HCA, this evidence argues that inhibition of ACE is also important. […]

[5] = treated rats; cited from earlier work

| Structure (SMILES) | SBP compared to control (systolic blood pressure [1]; course of study, low dose 14 mg HCA per day) | lowering of SBP (systolic blood pressure [1]; high dose 84 mg HCA per day) | lowering of SBP (systolic blood pressure [1]; intermediate dose 28 mg HCA per day) | SBP compared to control (systolic blood pressure [1]; end of eight weeks, high dose 84 mg HCA per day) | SBP compared to control (systolic blood pressure [1]; end of eight weeks, intermediate dose 28 mg HCA per day) | insulin, control versus arm alone, Student's t test (insulin; 84 mg HCA per day) | average insulin concentrations vs control (insulin; all KMgHCA groups (14, 28, 84 mg HCA per day), not significant using ANOVA) | SBP change from baseline (systolic blood pressure [2]) | body weight [3] | rise in glucose appearance in bloodstream [4] | CRP Modulation (C-reactive protein; salt 38 mg/day) | CRP Modulation (C-reactive protein; salt 76 mg/day) | CRP Modulation (C-reactive protein; salt 228 mg/day) | Δ OD units after 4 wks (C-reactive protein; salt 38 mg/day) [OD units] | Δ OD units after 4 wks (C-reactive protein; salt 76 mg/day) [OD units] | Δ OD units after 4 wks (C-reactive protein; salt 228 mg/day) [OD units] | TNF-α, simple t test versus control (TNF-α; intermediate dose) | TNF-α, simple t test versus control (TNF-α; low dose) | decrease in SBP after losartan injection (ACE system) | plasma levels of glucose, insulin, or free fatty acids relative to controls [5] |
| --- | --- | --- | --- | --- | --- | --- | --- | --- | --- | --- | --- | --- | --- | --- | --- | --- | --- | --- | --- | --- |
| O=C([O-])CC(O)(C(=O)[O-])C(O)C(=O)[O-].[K+].[Mg+2] (centres unmarked) [KMgHCA, potassium-magnesium hydroxycitrate] | below the threshold for effect | over 10 mm Hg | over 10 mm Hg | significant decreases in SBP compared to control | significant decreases in SBP compared to control | at the margin of significance | lower | decrease in SBP from baseline | trend for an increase in body weight | significantly lesser rise in glucose appearance in bloodstream | ** | ** | ** | 33 | −145 | −11.3 | significance | significance | – | – |
| O=C(O)CC(O)(C(=O)O)C(O)C(=O)O (single isomer, unassigned; (-)) [HCA, (−)-Hydroxycitric acid] | – | – | – | – | – | – | – | – | – | – | – | – | – | – | – | – | – | – | −21.7±7.0 | no significant differences in plasma levels of glucose, insulin, or free fatty acids |
